According to patent publication US8247532B2, “Deuterated hepatitis C protease inhibitors” (Vertex Pharmaceuticals Incorporated, priority 2006, dated 2012):

Key:
[1] = assay type: in vitro ADME; settings: human
Procedure: (§1) The epimerization rate was measured according to the following assay. Specifically, 100 μL medium (buffer, rat plasma, dog plasma, or human plasma) was added into a 96-well deep plate. To the plasma was then added 10 μL acetonitrile solution containing a test compound (1S,3aR,6aS)-2-((S)-2-((S)-2-cyclohexyl-2-(pyrazine-2-carboxamido)acetamido)-3,3-dimethylbutanoyl)-N—((S)-1-(cyclopropylamino)-1,2-dioxo-3-deutero-hexan-3-yl)octahydrocyclopenta[c]pyrrole-1-carboxamide (at 1 uM or 10 uM) and 1200 μL ethyl acetate into the 96 deep-well plate (2 mL) by using a TomTec liquid handling workstation (Hamden, Conn., USA). The plate was then covered tightly and shaken with a vortex for 20 minutes before it was centrifuged at 3000 rpm for 10 minutes. After centrifuge, 900 μL of the supernatant was transferred to a new V-shape 96 deep-well plate using TomTec, and then dried under nitrogen gas (flow rate of 60 L/min) at 25° C. for about 30 minutes. The residue was reconstituted with 100 μL ethyl acetate, and the solution was again transferred into the glass inserts in the 96-well plate. 20 uL of the reconstituted solution was injected into LC-MS/MS to determine the amount of the epimers. The LC-MS/MS spectrometer used a ChiralPak AD Column (4.6×150 mm, 10 μm), a mixture of isopropanol and n-heptane (10:90, 50:50, or 90:10) as the mobile phase, and isopropanol as the washing solvent. […]

[2] = Epimerization rate assay in buffer; assay type: physicochemical; settings: 1 uM and 10 uM
Procedure: as §1

time course (shape) of epimerization [1]: linear rate for 180 minutes
epimerization rate compared with non-deuterated form [2]: slower epimerization rate
SMILES: [2H][C@@](CCC)(NC(=O)[C@@H]1[C@H]2CCC[C@H]2CN1C(=O)[C@@H](NC(=O)[C@@H](NC(=O)c1cnccn1)C1CCCCC1)C(C)(C)C)C(=O)C(=O)NC1CC1 [deuterated compound, (1S,3aR,6aS)-2-((S)-2-((S)-2-cyclohexyl-2-(pyrazine-2-carboxamido)acetamido)-3,3-dimethylbutanoyl)-N—((S)-1-(cyclopropylamino)-1,2-dioxo-3-deutero-hexan-3-yl)octahydrocyclopenta[c]pyrrole-1-carboxamide]
